Test results taken from article PMC11550483 (2024).

Target: SARS2 M^pro (Severe acute respiratory syndrome coronavirus 2, UniProt P0DTD1, P3395H)
Assay type: biochemical, SARS-CoV-2

Row | SMILES | % inhibition (20 µM) biochemical [%]
1 | CC1CCN(C(=O)/C=C/c2cccc3ccccc23)CC1 [MWAC-0001755, CC1CCN(CC1)C(=O)\C=C\c2cccc3ccccc23] | 4.32
2 | Cc1cccc2c1NC(=O)/C2=C\C(=O)c1cccs1 [MWAC-0001756, Cc1cccc2\C(=C\C(=O)c3cccs3)\C(=O)Nc12] | 13
3 | CCOC(=O)N1CCN(c2nncc(-c3ccc4ccccc4c3)n2)CC1 [MWAC-0001757, CCOC(=O)N1CCN(CC1)c2nncc(n2)c3ccc4ccccc4c3] | 38
4 | CC(=O)Nc1cccc(-c2nc3cc(Cl)ccc3o2)c1 [MWAC-0001758, CC(=O)Nc1cccc(c1)c2oc3ccc(Cl)cc3n2] | 14
5 | Cc1ccc(/C=C/C(=O)Nc2ccccc2Br)o1 [MWAC-0001759, Cc1oc(\C=C\C(=O)Nc2ccccc2Br)cc1] | 15
6 | CCCN1C(=O)C2(c3cc(C)ccc31)N1CC3(C)CN2CC(C)(C1)C3=O (stereo not drawn) [MWAC-0001760, CCCN1C(=O)C2(N3CC4(C)CN2CC(C)(C3)C4=O)c5cc(C)ccc15] | 7
7 | CCOc1cc(S(=O)(=O)N2c3ccccc3CC2C)ccc1Cl (stereo not drawn) [MWAC-0001761, CCOc1cc(ccc1Cl)S(=O)(=O)N2C(C)Cc3ccccc23] | 8
8 | Cc1ccc2c(CC(=O)NCc3ccco3)coc2c1C [MWAC-0001762, Cc1ccc2c(CC(=O)NCc3occc3)coc2c1C] | 11
9 | O=C(CC1(O)C(=O)Nc2ccc(I)cc21)c1cccs1 (stereo not drawn) [MWAC-0001763, OC1(CC(=O)c2cccs2)C(=O)Nc3ccc(I)cc13] | 6.56
10 | N#Cc1ccccc1CN1C(=O)C(=O)c2ccccc21 [MWAC-0001764, O=C1N(Cc2ccccc2C#N)c3ccccc3C1=O] | 7
11 | NC(=O)c1ccccc1NC(=O)/C=C/C(=O)O [MWAC-0001765, NC(=O)c1ccccc1NC(=O)\C=C\C(=O)O] | 6.4
12 | O=C1NC(=S)NC(=O)C1=Cc1cccc(OS(=O)(=O)c2ccc3ccccc3c2)c1 [MWAC-0001766, O=C1NC(=S)NC(=O)C1=Cc2cccc(OS(=O)(=O)c3ccc4ccccc4c3)c2] | 15
13 | O=C(Nc1ccc(-c2cscn2)cc1)C1CCCN(Cc2ccccc2)C1 (stereo not drawn) [MWAC-0001767, O=C(Nc1ccc(cc1)c2cscn2)C3CCCN(Cc4ccccc4)C3] | 3.2
14 | CC1=CC(C)(C)N2C(=O)C(=O)c3cc(OC(=O)c4cccc(F)c4)cc1c32 [MWAC-0001768, CC1=CC(C)(C)N2C(=O)C(=O)c3cc(OC(=O)c4cccc(F)c4)cc1c23] | 2.41
15 | CCCN1C(=O)C(O)(CC(=O)c2ccccc2OC)c2cc(Br)ccc21 (stereo not drawn) [MWAC-0001769, CCCN1C(=O)C(O)(CC(=O)c2ccccc2OC)c3cc(Br)ccc13] | 2.64
16 | CC1=CC(C)(C)N2C(=O)C3(Nc4ccccc4CO3)c3cc(C)cc1c32 (stereo not drawn) [MWAC-0001770, CC1=CC(C)(C)N2C(=O)C3(Nc4ccccc4CO3)c5cc(C)cc1c25] | 0.845
17 | COc1ccc(C=O)cc1OS(=O)(=O)c1ccc(C)cc1 [MWAC-0001771, COc1ccc(C=O)cc1OS(=O)(=O)c2ccc(C)cc2] | 3.71
18 | COc1cc(C#N)ccc1OCc1ccc(Cl)cc1 [MWAC-0001772, COc1cc(ccc1OCc2ccc(Cl)cc2)C#N] | 0.301
19 | CN1C(=O)C(O)(CC(=O)c2ccco2)c2cc(Cl)ccc21 (stereo not drawn) [MWAC-0001773, CN1C(=O)C(O)(CC(=O)c2occc2)c3cc(Cl)ccc13] | 0.63
20 | CCOC(=O)c1ccc(NC(=O)CSc2nnc(-c3ccccc3OCC)o2)cc1 [MWAC-0001774, CCOC(=O)c1ccc(NC(=O)CSc2oc(nn2)c3ccccc3OCC)cc1] | 5.5
21 | Cc1cc(S(=O)(=O)NC(C)C)ccc1OCC(=O)Nc1cccc([N+](=O)[O-])c1 [MWAC-0001775, CC(C)NS(=O)(=O)c1ccc(OCC(=O)Nc2cccc(c2)[N+](=O)[O-])c(C)c1] | 3.17
22 | O=C(c1cccnc1)N1CCN(c2ccc(Cl)c(Cl)c2)CC1 [MWAC-0001776, Clc1ccc(cc1Cl)N2CCN(CC2)C(=O)c3cccnc3] | 47
23 | O=C(COc1ccccc1)Nc1scc(-c2ccccc2)c1C(=O)NCc1ccco1 [MWAC-0001777, O=C(COc1ccccc1)Nc2scc(c3ccccc3)c2C(=O)NCc4occc4] | 3.67
24 | C=CCN1C(=O)C(O)(CC(=O)c2cccc(OC)c2)c2cc(Br)ccc21 (stereo not drawn) [MWAC-0001778, COc1cccc(c1)C(=O)CC2(O)C(=O)N(CC=C)c3ccc(Br)cc23] | 2.82
25 | O=C(NNC(=O)C(c1ccccc1)c1ccccc1)Nc1cccc(Cl)c1 [MWAC-0001779, Clc1cccc(NC(=O)NNC(=O)C(c2ccccc2)c3ccccc3)c1] | 3
26 | O=C(C[S+]([O-])c1ccc(C(F)(F)F)cc1[N+](=O)[O-])OCc1ccccc1 (stereo not drawn) [MWAC-0001780, [O-][N+](=O)c1cc(ccc1S(=O)CC(=O)OCc2ccccc2)C(F)(F)F] | 4

Row | SMILES | % inhibition (20 µM) biochemical [%]
27 | CCOCCCNC(=O)c1ccc(Cl)c([N+](=O)[O-])c1 [MWAC-0001781, CCOCCCNC(=O)c1ccc(Cl)c(c1)[N+](=O)[O-]] | 0
28 | CCOc1ccccc1N1CCN(C(=O)c2ccc(Cl)c([N+](=O)[O-])c2)CC1 [MWAC-0001782, CCOc1ccccc1N2CCN(CC2)C(=O)c3ccc(Cl)c(c3)[N+](=O)[O-]] | 0.51
29 | O=Cc1cc(Cl)ccc1OCC(=O)Nc1ccc(F)cc1 [MWAC-0001783, Fc1ccc(NC(=O)COc2ccc(Cl)cc2C=O)cc1] | 4
30 | CCN1C(=O)C(O)(CC(=O)c2ccco2)c2cc(Br)ccc21 (stereo not drawn) [MWAC-0001784, CCN1C(=O)C(O)(CC(=O)c2occc2)c3cc(Br)ccc13] | 3
31 | Cc1cc(Br)cc2c1N(C)C(=O)C2(O)CC(=O)c1ccc(Cl)cc1 (stereo not drawn) [MWAC-0001785, CN1C(=O)C(O)(CC(=O)c2ccc(Cl)cc2)c3cc(Br)cc(C)c13] | 4.25
32 | CCc1cc2c3c(c1)C1(C(=O)N3C(C)(C)C=C2C)C(C#N)=C(N)Oc2[nH]c(=O)[nH]c(=O)c21 (stereo not drawn) [MWAC-0001786, CCc1cc2C(=CC(C)(C)N3C(=O)C4(C(=C(N)OC5=C4C(=O)NC(=O)N5)C#N)c(c1)c23)C] | 4
33 | CCOC(=O)c1ccc(NC(=O)N2CCc3ccccc32)cc1 [MWAC-0001787, CCOC(=O)c1ccc(NC(=O)N2CCc3ccccc23)cc1] | 3.21
34 | C=CCN1C(=O)C(O)(CC(=O)c2ccc(Cl)s2)c2cc(Br)ccc21 (stereo not drawn) [MWAC-0001788, OC1(CC(=O)c2ccc(Cl)s2)C(=O)N(CC=C)c3ccc(Br)cc13] | 7.53
35 | Cc1cc(I)cnc1NC(=S)NC(=O)c1ccco1 [MWAC-0001789, Cc1cc(I)cnc1NC(=S)NC(=O)c2occc2] | 2.41
36 | Cc1ccc(COc2ccc([N+](=O)[O-])cc2C=O)cc1 [MWAC-0001790, Cc1ccc(COc2ccc(cc2C=O)[N+](=O)[O-])cc1] | 7
37 | Cc1cccc(NC(=O)COc2ccc(Br)cc2/C=N/O)c1 [MWAC-0001791, Cc1cccc(NC(=O)COc2ccc(Br)cc2\C=N\O)c1] | 0.745
38 | O=C1/C(=C/c2ccc3c(c2)OCO3)SC(=S)N1Cc1cccnc1 [MWAC-0001792, O=C1N(Cc2cccnc2)C(=S)S/C/1=C\c3ccc4OCOc4c3] | 14
39 | O=C1NC(=O)C(=Cc2cc(Br)ccc2OCc2cccc(F)c2)C(=O)N1 [MWAC-0001793, Fc1cccc(COc2ccc(Br)cc2C=C3C(=O)NC(=O)NC3=O)c1] | 4
40 | CCOc1ccccc1OCCCOc1ccccc1C=O [MWAC-0001794, CCOc1ccccc1OCCCOc2ccccc2C=O] | 2.44
41 | CCOc1ccc2nc(NC(=O)C3CC3)sc2c1 [MWAC-0001795, CCOc1ccc2nc(NC(=O)C3CC3)sc2c1] | 8
42 | CCN(CC)c1ccc(/C=N/n2c(S)nnc2-c2cccnc2)c(O)c1 [MWAC-0001796, CCN(CC)c1ccc(\C=N\n2c(S)nnc2c3cccnc3)c(O)c1] | 9
43 | O=C1CSC(=S)N1Cc1cccnc1 [MWAC-0001797, O=C1CSC(=S)N1Cc2cccnc2] | 7
44 | CCOc1ccccc1N1C(=O)CC(Sc2nnc(-c3ccccc3)[nH]2)C1=O (stereo not drawn) [MWAC-0001798, CCOc1ccccc1N2C(=O)CC(Sc3nnc([nH]3)c4ccccc4)C2=O] | 2.63
45 | CN1C(=O)C(=Cc2cc(O)ccc2Br)C(=O)N(C)C1=O [MWAC-0001799, CN1C(=O)N(C)C(=O)C(=Cc2cc(O)ccc2Br)C1=O] | 5.42
46 | O=[N+]([O-])c1cc(C(F)(F)F)ccc1NCCNS(=O)(=O)Cc1ccccc1 [MWAC-0001800, [O-][N+](=O)c1cc(ccc1NCCNS(=O)(=O)Cc2ccccc2)C(F)(F)F] | 3.51
47 | COc1cc(OC)cc(C(=O)Nc2ccc(OC(C)C)cc2)c1 [MWAC-0001801, COc1cc(OC)cc(c1)C(=O)Nc2ccc(OC(C)C)cc2] | 5
48 | O=C1/C(=C/c2ccc(F)cc2)SC(=S)N1Cc1cccnc1 [MWAC-0001802, Fc1ccc(\C=C\2/SC(=S)N(Cc3cccnc3)C2=O)cc1] | 7
49 | CC(=O)Nc1ccc(OS(=O)(=O)c2ccc(Cl)c3ccccc23)cc1 [MWAC-0001803, CC(=O)Nc1ccc(OS(=O)(=O)c2ccc(Cl)c3ccccc23)cc1] | 1.42
50 | Cc1ccccc1C(=O)Nc1ccc(Br)cc1 [MWAC-0001804, Cc1ccccc1C(=O)Nc2ccc(Br)cc2] | 2.44
51 | O=C(Nc1nc2ccccc2[nH]1)c1ccc(Br)o1 [MWAC-0001805, Brc1oc(cc1)C(=O)Nc2nc3ccccc3[nH]2] | 9
